Literature values in paper PMC6317804, “The integration of pharmacophore-based 3D QSAR modeling and virtual screening in safety profiling: A case study to identify antagonistic activities against adenosine receptor, A2A, using 1,897 known drugs” (PLoS ONE, 2019).
pIC50: −log10 of the molar value.

molecular target: T1, adenosine receptor 2A (A2A) (Homo sapiens, UniProt P29274); conditions: S1 Table, compounds given as SMILES, downloaded from ChEMBL; cited from earlier work
T1 construct: CEREP (Poitiers, France), paid service
T1 sequence (P29274 whole entry): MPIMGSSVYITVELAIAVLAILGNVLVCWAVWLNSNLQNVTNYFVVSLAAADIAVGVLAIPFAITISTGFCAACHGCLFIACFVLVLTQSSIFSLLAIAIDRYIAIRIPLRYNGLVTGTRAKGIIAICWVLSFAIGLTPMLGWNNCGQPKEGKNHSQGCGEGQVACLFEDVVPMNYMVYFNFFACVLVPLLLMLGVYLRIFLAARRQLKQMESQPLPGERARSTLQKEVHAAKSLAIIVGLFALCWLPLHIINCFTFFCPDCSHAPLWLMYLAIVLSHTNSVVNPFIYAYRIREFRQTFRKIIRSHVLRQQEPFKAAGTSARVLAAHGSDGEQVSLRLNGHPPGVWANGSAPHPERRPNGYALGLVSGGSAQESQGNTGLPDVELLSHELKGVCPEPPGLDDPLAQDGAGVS

Molecule	pIC50
CCc1nn(-c2ccccc2C)c(Nc2ccccc2C(=O)O)c1-c1ccc2nccnc2c1	4.30
CCc1ccccc1-n1nc(C)c(-c2ccc3nccnc3c2)c1Nc1ccc(OC)cc1C(=O)O	4.30
Cc1ccc(C(=O)c2nc(NCCc3cccnc3)nc3ccsc23)s1	6.75
C[C@@H](Nc1nc(C(=O)N2CCCC2)c2sccc2n1)c1cccnc1	5.17
Cc1ccc(C(=O)c2nc(NCc3ccncn3)nc3ccsc23)s1 [Cc1ccc(s1)C(=O)c2nc(NCc3ccncn3)nc4ccsc24]	6.94
CCNC(=O)c1nc(NCc2cccnc2)nc2ccsc12 [CCNC(=O)c1nc(NCc2cccnc2)nc3ccsc13]	5.60
O=C(c1ccc(Cl)s1)c1nc(NCc2cccnc2)nc2ccsc12	5.81
COc1ccc(Nc2c(-c3ccc4nccnc4c3)c(C)nn2-c2ccccc2Cl)c(C(=O)O)c1	4.30
COc1ccc(Nc2c(-c3ccc4nccnc4c3)c(C)nn2-c2ccccc2C)c(C(=O)O)c1	4.30
Cc1ccccc1-n1nc(C)c(-c2cc(F)c3nccnc3c2)c1Nc1ccccc1C(=O)O	4.30
Cc1ccc(C(=O)c2nc(N)nc3ccsc23)s1 [Cc1ccc(s1)C(=O)c2nc(N)nc3ccsc23]	6.66
CNc1cc2nc(NCc3cccnc3)nc(C(=O)c3cccs3)c2s1	6.02
Cc1ccc(C(=O)c2nc(NC(=O)c3cccnc3)nc3ccsc23)s1	6.79
COC(=O)Nc1cc(-c2cncc(OC)c2)nc(-n2nc(C)cc2C)n1	6.78
Cc1nc(C(=O)c2ccc(C)s2)c2sccc2n1 [Cc1ccc(s1)C(=O)c2nc(C)nc3ccsc23]	5.11
Cc1ccc(C(=O)c2nc(NCCc3ccccn3)nc3ccsc23)s1	6.45
O=C(c1ccccc1)c1nc(NCc2cccnc2)nc2ccsc12 [O=C(c1ccccc1)c2nc(NCc3cccnc3)nc4ccsc24]	5.79
CSc1c2c(nc(N)n3nc(-c4ccco4)nc23)nn1C [CSc1c2c(nc(N)n3nc(nc23)c4occc4)nn1C]	8.21
Cc1ccccc1-n1nc(C)c(-c2ccc3nccnc3c2)c1Nc1ccc(Cl)cc1C(=O)O	4.30
Cc1ccc(C(=O)c2nc(NCC3CCCCC3)nc3ccsc23)s1 [Cc1ccc(s1)C(=O)c2nc(NCC3CCCCC3)nc4ccsc24]	5.00

Molecule	pIC50
O=C(c1cccs1)c1nc(NCc2cccnc2)nc2ccsc12 [O=C(c1cccs1)c2nc(NCc3cccnc3)nc4ccsc24]	7.29
Cc1ccc(C(=O)c2nc(NCc3cccnc3)nc3ccsc23)o1 [Cc1oc(cc1)C(=O)c2nc(NCc3cccnc3)nc4ccsc24]	5.90
Nc1nc2c(cnn2CCc2ccc(OCc3ccccc3)cc2)c2nc(-c3ccco3)nn12	7.05
Nc1nc2c(cnn2CCCc2ccc(O)cc2)c2nc(-c3ccco3)nn12	8.00
CN(C)c1cc2nc(NCc3cccnc3)nc(C(=O)c3cccs3)c2s1	5.85
O=C(c1nccs1)c1nc(NCc2cccnc2)nc2ccsc12 [O=C(c1nccs1)c2nc(NCc3cccnc3)nc4ccsc24]	6.14
CCNc1nc(C(=O)c2ccc(C)s2)c2sccc2n1 [CCNc1nc(C(=O)c2ccc(C)s2)c3sccc3n1]	6.90
COc1ccc(CCCn2ncc3c2nc(N)n2nc(-c4ccco4)nc32)cc1OC	7.70
CCc1nc(C(=O)c2ccc(C)s2)c2sccc2n1 [CCc1nc(C(=O)c2ccc(C)s2)c3sccc3n1]	5.41
Cc1ccc(C(=O)c2nc(N(C)Cc3cccnc3)nc3ccsc23)s1	5.64
Cc1ccc(C(=O)c2nc(NC(C)c3ccccc3)nc3ccsc23)s1 (centres unmarked)	5.97
Nc1nc2c(cnn2Cc2ccc(OCc3ccccc3)cc2)c2nc(-c3ccco3)nn12	6.30
C[C@H](Nc1nc(C(=O)N2CCCC2)c2sccc2n1)c1cccnc1	6.33
CC(=O)Nc1cc(-c2cccc(N3CCC(O)CC3)n2)nc(-n2nc(C)cc2C)n1	7.66
CC(Nc1nc(C(=O)N2CCCC2)c2sccc2n1)c1cccnc1 (centres unmarked) [CC(Nc1nc(C(=O)N2CCCC2)c3sccc3n1)c4cccnc4]	5.63
Cc1ccc(C(=O)c2nc(NCc3ccccn3)nc3ccsc23)s1 [Cc1ccc(s1)C(=O)c2nc(NCc3ccccn3)nc4ccsc24]	6.73
Nc1cc2nc(NCc3cccnc3)nc(C(=O)c3cccs3)c2s1 [Nc1cc2nc(NCc3cccnc3)nc(C(=O)c4cccs4)c2s1]	5.00
O=C(c1cncs1)c1nc(NCc2cccnc2)nc2ccsc12 [O=C(c1cncs1)c2nc(NCc3cccnc3)nc4ccsc24]	5.77
5-methoxy-2-((3-methyl-1-phenyl-4-(quinoxalin-6-yl)-1H-pyrazol-5-yl)amino)benzoic acid	5.26
Cc1ccc(C(=O)c2nc(NC(C)c3ccccn3)nc3ccsc23)s1 (centres unmarked)	6.93

Molecule	pIC50
O=C(c1cccnc1)c1nc(NCc2cccnc2)nc2ccsc12 [O=C(c1cccnc1)c2nc(NCc3cccnc3)nc4ccsc24]	5.93
O=C(c1cccs1)c1nc(NCc2cccnc2)nc2cc(Cl)sc12	7.21
O=C(NC1CC1)c1nc(NCc2cccnc2)nc2ccsc12 [O=C(NC1CC1)c2nc(NCc3cccnc3)nc4ccsc24]	6.15
O=C(c1ccsc1)c1nc(NCc2cccnc2)nc2ccsc12 [O=C(c1ccsc1)c2nc(NCc3cccnc3)nc4ccsc24]	6.39
CCOC(=O)Nc1cc(-c2cncc(OC)c2)nc(-n2nc(C)cc2C)n1	6.71
CCNc1c2c(nc(NC(=O)Nc3ccc(OC)cc3)n3nc(-c4ccco4)nc23)nn1C	7.21
Cc1ccc(Nc2c(-c3ccc4nccnc4c3)c(C)nn2-c2ccccc2C)c(C(=O)O)c1	4.30
O=C(c1nc(NCc2cccnc2)nc2ccsc12)N1CCCC1 [O=C(N1CCCC1)c2nc(NCc3cccnc3)nc4ccsc24]	5.21
Cc1ccccc1-n1nc(C(F)(F)F)c(-c2ccc3nccnc3c2)c1Nc1ccccc1C(=O)O	4.30
CCCSc1c2c(nc(N)n3nc(-c4ccco4)nc23)nn1C [CCCSc1c2c(nc(N)n3nc(nc23)c4occc4)nn1C]	7.83
Cc1ccc(C(=O)c2nc(NCc3cccnc3)nc3ccsc23)s1 [Cc1ccc(s1)C(=O)c2nc(NCc3cccnc3)nc4ccsc24]	6.00
CCNc1cc2nc(NCc3cccnc3)nc(C(=O)c3cccs3)c2s1	5.60
COc1cccc(-c2cc(NC(C)=O)nc(-n3nc(C)cc3C)n2)c1F	7.49
Cc1ccc(C(=O)c2ncnc3ccsc23)s1 [Cc1ccc(s1)C(=O)c2ncnc3ccsc23]	5.17
CC(=O)Nc1cc(-c2cncc(O)c2)nc(-n2nc(C)cc2C)n1	7.19
COc1ccc(C(=O)c2nc(NCc3cccnc3)nc3ccsc23)cc1	6.20
Cc1ccccc1-n1ncc(-c2ccc3nccnc3c2)c1Nc1ccccc1C(=O)O	4.30
O=C(c1ccncc1)c1nc(NCc2cccnc2)nc2ccsc12 [O=C(c1ccncc1)c2nc(NCc3cccnc3)nc4ccsc24]	5.71
Cc1ccc(C(=O)c2nc(NC(C)c3cccnc3)nc3ccsc23)s1 (centres unmarked)	7.00
Cc1ccc(C(=O)c2nc(NCc3cccnc3)nc3ccsc23)cc1	6.35

same assay, conditions: S1 Table, compounds given as SMILES, downloaded from ChEMBL; listed as COc1ccc(Nc2c(c(C)nn2C3CCCCC3)c4ccc5nccnc5c4)c(c1)C(=O)O; cited from earlier work

Molecule	pIC50
5-methoxy-2-((3-methyl-1-phenyl-4-(quinoxalin-6-yl)-1H-pyrazol-5-yl)amino)benzoic acid	4.30

same assay, conditions: S1 Table, compounds given as SMILES, downloaded from ChEMBL; listed as Cc1ccc(s1)C(=O)c2nc(NCc3ccccc3)nc4ccsc24; cited from earlier work

Molecule	pIC50
Cc1ccc(C(=O)c2nc(NCC3CCCCC3)nc3ccsc23)s1 [Cc1ccc(s1)C(=O)c2nc(NCC3CCCCC3)nc4ccsc24]	5.15

same assay, conditions: training set compound, negative logarithm of IC50; cited from earlier work

Molecule	measured pIC50
Cc1ccc(C(=O)c2nc(NCc3ccncn3)nc3ccsc23)s1 [Cc1ccc(s1)C(=O)c2nc(NCc3ccncn3)nc4ccsc24]	6.9
CC(C)NC(=O)c1nc(NCc2cccnc2)nc2ccsc12 [CC(C)NC(=O)c1nc(NCc2cccnc2)nc3ccsc13, N-isopropyl-2-((pyridin-3-ylmethyl)amino)thieno[3,2-d]pyrimidine-4-carboxamide]	5.6
5-methoxy-2-((3-methyl-1-phenyl-4-(quinoxalin-6-yl)-1H-pyrazol-5-yl)amino)benzoic acid	4.3
